{
  "source": "patent US11033629B2",
  "about": "“Oral formulations of kappa opioid receptor agonists” (Cara Therapeutics, Inc., priority 2018, dated 2021)",
  "experiment": "Intravenous delivery of CR845 to canines (composite IV data from five studies, reference for bioavailability)",
  "details": "dog, in vivo, average dose 0.029±0.029 mg/kg, ten kilogram dogs, thirty-six canines",
  "description": "Each capsule of prototype formulation 1 contained: 1.6 mg spray dried CR845 in 90% Miglyol 812, 10% sodium caprate. Each capsule of prototype formulation 2 contained: 1.6 mg crystallized CR845 in 90% Miglyol 812, 10% sodium caprate. Each capsule of prototype formulation 3 contained: 1.6 mg spray dried CR845 in 90% Miglyol 812, 10% capric acid. Each capsule of prototype formulation 4 contained: 1.6 mg spray dried CR845 in 70% Miglyol 812 in 30% capric acid. Bioavailability (% f) is expressed as a percent of CR845 observed (calculated from the area under the curve: AUC) as compared with the total CR845 AUC observed after intravenous delivery of the same dose. Composite IV data from five separate studies with thirty-six canines was averaged and used for bioavailability calculations. […] The observed avg.",
  "data": [
    {"smiles": "CC(C)C[C@@H](NC(=O)[C@@H](Cc1ccccc1)NC(=O)[C@H](N)Cc1ccccc1)C(=O)N[C@H](CCCCN)C(=O)N1CCC(N)(C(=O)O)CC1", "note": "[CR845, D-Phe-D-Phe-D-Leu-D-Lys-[ω(4-aminopiperidine-4-carboxylic acid)]-OH]", "values": [
      {"measurement": "Cmax", "value": "163 ± 39.2", "unit": "ng/mL"}
    ]}
  ]
}
